Experiments:
[1] = test system: deoxyribonucleic acid synthesis of Ehrlich ascites cells; assay: In vitro whole cell incorporation: deoxyribonucleic acid synthesis; format: cell-based, mouse; conditions: preliminary, 60 min, read-out: ID50, inhibition of deoxyribonucleic acid synthesis
Experimental: (§1) CF1 male mice (~30 g) were implanted with 2×10^6 Ehrlich ascites tumor cells, intraperitoneally on Day 0. Compound I was suspended by homogenation in 0.05% polysorbate.80-water and administered intraperitoneally at 10 and 20 mg/kg for 9 days to determine its effectiveness for inhibition of tumor growth. Mice were sacrificed on Day 10, and the ascites fluid was collected from the peritoneal cavity. The volume and ascrit (packed cell volume) were determined for each animal and the percent inhibition of tumor growth was calculated. For the metabolic studies, mice were treated on Days 8 and 9 with 10 mg/kg of Compound I, intraperitoneally. The animal was sacrificed on Day 10 and the ascites fluid harvested. The in vitro metabolic studies were performed at 0.25, 0.50 and 1 mmol final concentration of Compound I.
In vitro incorporation of ^3 H-thymidine, ^3 H-uridine, or ^3 H-leucine was determined using 10^6 Ehrlich ascites cells, 1 μCi labeled precursor, minimum essential medium and varying final concentrations of drug from 0.25-1.0 mM. The tubes were incubated at 37° C. for 60 min and inactivated by trichloroacetic acid. The acid insoluble labeled deoxyribonucleic acid was collected on GF/F glass filter discs and ribonucleic acid and protein were precipitated on nitrocellulose filters by vacuum suction. Results are expressed as dpm of incorporated precursor per hour per 10^6 cells.

[2] = test system: inosinic acid dehydrogenase; assay: In vitro inosinic acid dehydrogenase activity; format: biochemical, mouse; conditions: 0.25 to 1.0 mM
Experimental: as §1, with “The animal was sacrificed on Day 10 and the ascites fluid harvested. The in vitro metabolic studies were performed at 0.25, 0.50 and 1 mmol final concentration of Compound I.” left out
(§2) Carbamyl phosphate synthetase activity was determined using the reaction medium of Kalman et al [Am. […] Citrulline formed from ornithine was measured at 490 nm by the method of Archibald [J. Biol. Chem., 156, 121 (1944)]. […] The ^14 CO2 generated in 15 min was trapped in 1M KOH and counted. Thymidylate synthetase activity was determined using a post-mitochondrial supernatant (9000 g×10 min) and 5 μCi of 5-^3 H-deoxyuridine monophosphate (14 Ci/mmol) according to the method of Kampf et al [ J. Med. Chem., 19, 903 (1976)]. ^14 C-Formate incorporation into purines was determined by the method of Spassova et al [Biochem. Pharmacol., 25, 923 (1976)] using 0.5 μCi of ^14 C-formic acid (52.0 mCi/mmol). […] The Rf value for xanthine monophosphate was scraped and counted. […]

[3] = test system: deoxyribonuclease; assay: In vitro deoxyribonuclease activity; format: biochemical, mouse; conditions: read-out: ID50, Deoxyribonuclease activity
Experimental: as §1

[4] = molecular target: T1, dihydrofolate reductase (Mus musculus, UniProt P00375); assay: In vivo dihydrofolate reductase activity
T1 sequence (P00375 1-187): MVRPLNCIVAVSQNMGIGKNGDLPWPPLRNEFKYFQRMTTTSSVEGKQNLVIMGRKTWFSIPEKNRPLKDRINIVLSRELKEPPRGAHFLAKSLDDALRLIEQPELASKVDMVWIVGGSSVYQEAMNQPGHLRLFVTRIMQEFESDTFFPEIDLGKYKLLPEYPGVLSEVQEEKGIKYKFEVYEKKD
Experimental: as §1, with “The animal was sacrificed on Day 10 and the ascites fluid harvested. The in vitro metabolic studies were performed at 0.25, 0.50 and 1 mmol final concentration of Compound I.” left out
as §2

[5] = test system: Holtzman male rats; assay: Rat liver, small intestine and fecal lipid extraction; format: in vivo; conditions: 14 days 10 mg/kg/day orally

Substance: {Cu[(CH3)3 N.BH2 CO2 ]2.(CH3)3 N.BH2 COOH} [Compound I]
- IC50 [1]: 940 µM
- inosinic acid dehydrogenase inhibition [2]: not inhibited
- IC50 [3]: 682 µM
- Dihydrofolate reductase activity inhibited [4]: 25%
- Dihydrofolate reductase activity ([4]; 10 mg/kg/day I.P. on Days 8 and 9): 75 ± 6 % Control
- Cholesterol ([5]; rat Feces): 110 ± 6 Percent Control
- Mg of Lipid Extracted ([5]; rat Feces): 123 ± 5 Percent Control
- Neutral Lipids ([5]; rat Feces): 131 ± 7 Percent Control
- Phospholipids ([5]; rat Feces): 183 ± 8 Percent Control
- Protein ([5]; rat Feces): 68 ± 6 Percent Control
- Triglyceride ([5]; rat Feces): 133 ± 7 Percent Control
- Cholesterol ([5]; rat Liver): 65 ± 6 Percent Control
- Mg of Lipid Extracted ([5]; rat Liver): 51 ± 5 Percent Control
- Neutral Lipids ([5]; rat Liver): 93 ± 9 Percent Control
- Phospholipids ([5]; rat Liver): 93 ± 9 Percent Control
- Protein ([5]; rat Liver): 99 ± 7 Percent Control
- Triglyceride ([5]; rat Liver): 76 ± 7 Percent Control
- Cholesterol ([5]; rat Small Intestine): 47 ± 6 Percent Control
- Mg of Lipid Extracted ([5]; rat Small Intestine): 43 ± 5 Percent Control
- Neutral Lipids ([5]; rat Small Intestine): 17 ± 3 Percent Control
- Phospholipids ([5]; rat Small Intestine): 46 ± 5 Percent Control
- Protein ([5]; rat Small Intestine): 111 ± 8 Percent Control
- Triglyceride ([5]; rat Small Intestine): 40 ± 4 Percent Control
